Molecules are shown by their SMILES. Read-outs that look alike come from different tables or passages of the source.

For data set [1], the system named is isolated guinea pig hearts (coronary artery). The data set is described as follows: coronary vascular dilative effect in isolated guinea pig hearts (Langendorff). Also noted: species or system Hartley guinea pigs. As to conditions: isolated hearts perfused at 37° C., 0.1 ml of diluted solution into the coronary artery. On the procedure: The coronary vascular dilative effect of selected 2-chloro-1,4-dihydropyridine derivatives of the present invention was tested.
Hartley guinea pigs (weight 400-500 g) were killed by a blow on the head and their hearts were immediately isolated. The hearts were perfused with Krebs-Henseleit solution bubbled with a mixture of 95% O2 +5% CO2 and maintained at 37° C. at a constant rate of 6 ml/minute according to Langendorff's method [J. Pharmacol. Methods 2, 143 (1979)]. The perfusion pressure was measured continuously by a pressure transducer. Samples were prepared by emulsifying 1 mg of a test compound in 1 ml of a mixture of dimethylsulfoxide and physiological saline solution (1:9) and diluting with physiological saline solution to the predetermined concentration. 0.1 ml of the diluted solution was administered into the coronary artery via rubber tube connected to an aorta cannula to obtain ED50 (μg/heart) data as shown in Table 2. The numbers of the compounds in the Table correspond respectively to those of the working examples described above.

The subject of data set [2] is vascular resistance of the vertebral artery. The data set is described as follows: vascular resistance of the vertebral artery in anesthetized dogs. The note with it: intravenous injection; for ED30: Canis lupus familiaris, vertebral artery vascular resistance. The data set is classed as in vivo. As for the experimental part:
The pharmacological effect (ED30) of selected 2-chloro-1,4-dihydropyridine derivatives of the present invention with respect to the vascular resistance of the vertebral artery in anesthetized dogs was treated by the following procedures.
Adult dogs of either sex (7-14 kg in body weight) were anesthetized with at first thiopental sodium (35 mg/kg, intraperitoneal), anesthetized with urethane (400 mg/kg, intravenous) and α-chloalose (60 mg/kg, intravenous) and kept under artificial respiration throughout the experiment. After thoracotomy at the left first intercostal space, the vertebral artery was exposed and blood flow was measured with an intracorporeal flow probe connected to an electromagnetic flowmeter (MF-27, Nihon Kohden).
At the same time, continuous measurement of the following parameters was made: systemic blood pressure (mean pressure) at the right femoral artery, the limb lead II ECG, the heart rate with a tachometer triggered by the R wave of ECG, and the vascular resistance determined by loading an electronic divider (EO-601 G, Nihon Kohden) with the mean values of blood pressure and vertebral artery blood flow. All of these parameters were recorded simultaneously on a polygraph (RM-600, Nihon Kohden).
All the test compounds were injected through a cannula inserted into the femoral vein.
The ED30 (μg/kg) values obtained by intravenous injection and the values of T1/2 (min) (the time to reach 50% of the resistance drop) are shown in Table 3, wherein the Compound Numbers are keyed to the Example Numbers.

In data set [3] the test system is conscious spontaneously hypertensive rats (SHR). The data set can be described thus: hypotensive action in conscious spontaneously hypertensive rats (SHR). It is filed as in vivo. The note with it: 10 mg/kg orally, starved overnight. On the procedure:
Selected compounds of the present invention were tested for their hypotensive action in conscious spontaneously hypertensive rats (SHR).
A group of 17 to 20-week old male SHR were anesthetized with ether and a cannula was inserted into the left femoral artery. At least one day after the operation, the cannula was connected to a pressure transducer and the blood pressure was measured continuously under conscious and unrestrained condition, thereby obtaining the data shown in Table 4. Each of the test compounds as a clear suspension in 0.5% CMC-Na was administered orally at a dose of 10 mg/kg (body weight) to each animal which was starved overnight.

Data set [4] is described as follows: acute toxicity (LD50) in male mice. As to conditions: mouse, in vivo. The source says: The acute toxicity (LD50) data of selected compounds of the present invention as administered to two groups of male mice were obtained and the results are shown in Table 5. One group of mice which received peroral administration had been starved overnight. Each of the test compounds was suspended in 0.5% CMC-Na for peroral administration, or dissolved in dimethyl sulfoxide and diluted with physiological saline solution for intravenous injection.

The mark [5] stands for this setting: iv, male mice, read-out: LD50 i.v.
Where [6] appears, read: po, male mice starved overnight, suspended in 0.5% CMC-Na, read-out: LD50 p.o.

With `CCCCCCCOC(=O)C1=C(C)NC(Cl)=C(C(=O)OC)C1c1cccc([N+](=O)[O-])c1` (stereo not drawn) [SUN 5143], the ED50 in data set [1] came out at 0.02 μg/heart. In data set [2], the ED30 came out at 0.0022 mg/kg and the “T1/2 (the time to reach 50% of the resistance drop)” value turned out to be 20.5 min.
The molecule `COC(=O)C1=C(Cl)NC(C)=C(C(=O)OC(C)C)C1c1cccc([N+](=O)[O-])c1` (stereo not drawn) [SUN 5141] had an ED50 in data set [1] of 0.05 μg/heart. Further, in data set [2], the ED30 stood at 0.00028 mg/kg and the “T1/2 (the time to reach 50% of the resistance drop)” value was 10.6 min. For the same molecule, in data set [3], the “Blood pressure drop, Maximum drop” value is given as 51% and the “Blood pressure drop, 6 hours” value amounted to 33%. Also, the LD50 (usually the dose expected to kill half of the subjects tested) in data set [4] (setting [5]) amounted to 80 mg/kg.
In turn, `COC(=O)C1=C(C)NC(Cl)=C(C(=O)OC)C1c1cccc([N+](=O)[O-])c1` (stereo not drawn) [SUN 4616] came in with an ED30 in data set [2] of 0.0012 mg/kg.
With `COC(=O)C1=C(C)NC(C)=C(C(=O)OCCN(C)Cc2ccccc2)C1c1cccc([N+](=O)[O-])c1` (stereo not drawn) [Nicardipine, reference compound], in data set [3], the “Blood pressure drop, Maximum drop” value was 39% and the “Blood pressure drop, 6 hours” value is 10-20%. In addition, in data set [4] (setting [5]), the LD50 stood at 12.2 mg/kg. Also, in data set [4] (setting [6]), the LD50 worked out at 455 mg/kg.
As for `COCCOC(=O)C1=C(C)NC(Cl)=C(C(=O)OC)C1c1cccc([N+](=O)[O-])c1` (stereo not drawn) [SUN 5220], in data set [2], the ED30 was found to be 0.0058 mg/kg and the “T1/2 (the time to reach 50% of the resistance drop)” value was 13.5 min.
`COC(=O)C1=C(Cl)NC(C)=C(C(=O)OC2CCCN(Cc3ccc(F)cc3)C2)C1c1cccc([N+](=O)[O-])c1` (stereo not drawn) [SUN 5142, 2-Chloro-5-[1-(4-fluorobenzyl)piperidin-3-yl]oxycarbonyl-3-methoxycarbonyl-6-methyl-4-(3-nitrophenyl)-1,4-dihydroppyridine] yielded an ED50 in data set [1] of 0.03 μg/heart. In addition, in data set [2], the ED30 came out at 0.0028 mg/kg and the “T1/2 (the time to reach 50% of the resistance drop)” value is listed as > 30 min.
In the case of `COC(=O)C1=C(Cl)NC(C)=C(C(=O)OCCN(C)Cc2ccccc2)C1c1cccc([N+](=O)[O-])c1` (stereo not drawn) [SUN 5017], in data set [2], the ED30 amounted to 0.0033 mg/kg and the “T1/2 (the time to reach 50% of the resistance drop)” value is 17.0 min.
For `COC(=O)C1=C(Cl)NC(C)=C(C(=O)OCC2CC2)C1c1cccc([N+](=O)[O-])c1` (stereo not drawn) [SUN 5164], the ED30 in data set [2] was found to be 0.00022 mg/kg.
Turning to `COC(=O)C1=C(Cl)NC(C)=C(C(=O)OCCc2cccs2)C1c1cccc([N+](=O)[O-])c1` (stereo not drawn) [SUN 5163], in data set [2], the ED30 is 0.0093 mg/kg and the “T1/2 (the time to reach 50% of the resistance drop)” value is on record as 14.0 min.
For `COC(=O)C1=C(Cl)NC(C)=C(C(=O)OCCN2CCN(C(c3ccccc3)c3ccccc3)CC2)C1c1cccc([N+](=O)[O-])c1` (stereo not drawn) [SUN 4752, 5-[2-(4-Benzhydrylpiperazin-1-yl)ethyl]oxycarbonyl-2-chloro-3-methoxycarbonyl-6-methyl-4-(3-nitrophenyl)-1,4-dihydropyridine], in data set [2], the ED30 amounted to 0.003 mg/kg and the “T1/2 (the time to reach 50% of the resistance drop)” value is recorded as > 30 min. Moreover, in data set [3], the “Blood pressure drop, Maximum drop” value is given as 35% and the “Blood pressure drop, 6 hours” value was found to be 30%. Besides, the LD50 in data set [4] (setting [5]) lay in the range of 23 to 27 mg/kg. Moreover, the LD50 in data set [4] (setting [6]) turned out to be 1000 mg/kg.
For `COC(=O)C1=C(Cl)NC(C)=C(C(=O)OC(CN(C)Cc2ccccc2)c2ccccc2)C1c1cccc([N+](=O)[O-])c1` (stereo not drawn) [SUN 5181], the ED30 in data set [2] is 0.0021 mg/kg.
For `COC(=O)C1=C(Cl)NC(C)=C(C(=O)OCCCCCc2ccccc2)C1c1cccc([N+](=O)[O-])c1` (stereo not drawn) [SUN 5088], in data set [2], the ED30 turned out to be 0.0014 mg/kg and the “T1/2 (the time to reach 50% of the resistance drop)” value is listed as 17.0 min.
`CCOC(=O)C1=C(Cl)NC(C)=C(C(=O)OCCN2CCOCC2)C1c1ccccc1[N+](=O)[O-]` (stereo not drawn) [SUN 5252] gave an ED30 in data set [2] of 0.0036 mg/kg.
On to `COC(=O)C1=C(C)NC(Cl)=C(C(=O)OC)C1c1ccccc1[N+](=O)[O-]` (stereo not drawn) [SUN 4671], for which, in data set [2], the ED30 was found to be 0.00059 mg/kg.
Take `COC(=O)C1=C(Cl)NC(C)=C(C(=O)OCCN2CCN(C3c4ccccc4-c4ccccc43)CC2)C1c1cccc([N+](=O)[O-])c1` (stereo not drawn) [SUN 5018]: in data set [2], the ED30 came to 0.0043 mg/kg and the “T1/2 (the time to reach 50% of the resistance drop)” value is 15.5 min.
For `COC(=O)C1=C(Cl)NC(C)=C(C(=O)OCCOc2ccccc2)C1c1cccc([N+](=O)[O-])c1` (stereo not drawn) [SUN 5151], in data set [2], the ED30 stood at 0.0036 mg/kg and the “T1/2 (the time to reach 50% of the resistance drop)” value is listed as 10.5 min.
